Reference: patent US11576916B2, “Methods of preventing or treating ophthalmic diseases” (KINARUS AG, priority 2017, dated 2023)
Structures can show the parent of a compound that is named as a salt.

Legend:
[1] = test system: choroidal neovascularization (CNV) in a mouse model of age-related macular degeneration; assay: Laser-induced CNV mouse model of AMD: retinal thickness by SD-OCT; type: in vivo, C57BL/6J mice; settings: after 14 days of treatment; for CNV area retinal thickness, comparison between treatments (in words): versus vehicle, single agents or positive control aflibercept; for Difference in retinal thickness in CNV area as compared to the total retinal thickness: mean ± SD per lesion, vehicle 19.9 ± 20.7; for Difference in retinal thickness in CNV area as compared to the total retinal thickness / Total retinal thickness: SD-OCT, pioglitazone/pamapimod oral once daily, aflibercept 80 μg IVT per eye; for Total retinal thickness: mean ± SD
Procedure: (§1) CNV (choroidal neovascularization) in mice or rats is an accepted model to mimic the wet form of age-related macular degeneration (AMD). The model is induced by laser photocoagulation which creates breaks in Bruchs membrane. The subsequent pathological cascade includes inflammation, angiogenesis and proteolysis.
(§2) A study in a mouse model was performed to evaluate the efficacy of pioglitazone and pamapimod each alone or in combination on the development of CNV. Three laser burns were used to induce CNV in the eyes of C57Bl/6J mice. Pioglitazone or pamapimod or the combination of pioglitazone/pamapimod were administered orally once daily to groups of animals starting one day prior to lasering.
(§3) Male 7-week old C57BL/6J mice (Janvier Labs, France) were obtained and housed at a constant temperature (22±+1° C.) in a light-controlled environment with ad libitum access to food and water.
(§4) For CNV induction, animals were anesthetized with an intraperitoneal injection of ketamine (37.5 mg/kg; Ketalar, Pfizer Oy Animal Health, Helsinki, Finland) and medetomidine (0.45 mg/kg; Domitor, Orion Oy, Espoo, Finland). A drop of 0.5% tropicamid (Santen) was applied on the cornea to dilate the pupils. Laser photocoagulation was performed once using a 532 nm diode laser Lumenis Novus Spectra (Lumenis Ltd., Israel) attached to a slit lamp. A coverslip and Viscotears® gel (Novartis) were used to applanate the cornea. Three laser lesions were performed per eye. Following lasering, anesthesia was reversed by u2-antagonist medetomidine, atipamezole (0.5 mg/kg i.p., Antisedan, Orion Pharma, Espoo, Finland).
(§5) Oral drug formulations were prepared in a vehicle adjusted to 4.8±0.05 using buffer. Test compounds [pioglitazone HCl (2.5 mg/ml), pamapimod (10 mg/ml) and combination pioglitazone HCl (2.5 mg/ml)+pamapimod (10 mg/ml)] were formulated in this vehicle and sonicated prior to administration (approx. 3 min).
Aflibercept (Eylea®, Bayer Pharma AG) was purchased as a ready-to-use solution for intravitreal injections at a concentration of 40 mg of aflibercept in 1 ml solution. The dose of 80 μg (injection volume of 2 μl) of aflibercept per mouse eye was used in the present study.
Compounds were administered either orally by gastric lavage (pioglitazone, pamapimod) at a dose of 0.2 ml volume per 20 g mouse weight or by IVT (aflibercept) using a 5 μl glass microsyringe (Hamilton Bonaduz AG, Bonaduz, Switzerland). Aflibercept was injected only into the lasered right eye. The injection volume was 2 μl per eye.
CNV lesions were monitored using Envisu R2200 SD-OCT (Spectral Domain Optical Coherence Tomography system; Bioptigen Inc./Leica) in anesthetized mice as described above. The thickness of each retina was measured from 24 sites of randomly overlaid grid and at all three lasered sites. The total retinal thickness was considered as the thickness of all layers from nerve fiber layer to RPE (healthy measurement sites) or to an implied line connecting the RPE around the site of damage (lasered sites).
Quantitative data was graphed and analyzed using GraphPad Prism software (v. 7.0, GraphPad Software Inc.). The D'Agostino & Pearson normality test was used for each parameter. […] Differences were considered to be statistically significant at the P<0.05 level.

[2] = test system: choroidal neovascularization (CNV) in a mouse model of age-related macular degeneration; assay: Laser-induced CNV mouse model of AMD: isolectin B4 staining of choroidal flat-mounts (CNV lesion area); type: in vivo, C57BL/6J mice; settings: for Formation of CNV in mice, in words: conclusion of the study, versus vehicle
Procedure: as §1, §2, §3, §4, §5
Aflibercept (Eylea®, Bayer Pharma AG) was purchased as a ready-to-use solution for intravitreal injections at a concentration of 40 mg of aflibercept in 1 ml solution. The dose of 80 μg (injection volume of 2 μl) of aflibercept per mouse eye was used in the present study. […]
The flat-mount choroids were stained with fluorescein-labeled isolectin B4 (Vector Laboratories) to detect lesion CNV area and imaged using Leica DM IRBE microscope (Leica Microsystems, Germany) with an epifluorescent attachment and analyzed using Image J software (v.1.51f, National Institutes of Health, USA).
Quantitative data was graphed and analyzed using GraphPad Prism software (v. 7.0, GraphPad Software Inc.). […]

Compound | CNV area retinal thickness, comparison between treatments (in words) [1] | Difference in retinal thickness in CNV area as compared to the total retinal thickness ([1]; HCl) | Difference in retinal thickness in CNV area as compared to the total retinal thickness ([1]; listed as pioglitazone, HCl) | Total retinal thickness [1] | Formation of CNV in mice, in words [2] | Difference in retinal thickness in CNV area as compared to the total retinal thickness [1] | Difference in retinal thickness in CNV area as compared to the total retinal thickness ([1]; listed as pamapimod) | Isolectin B4 positive area per CNV lesion (new vessel area), in words ([2]; choroidal flat-mounts, after 14 days of treatment, Kruskal-Wallis test with Dunn's multiple comparisons)
CCc1ccc(CCOc2ccc(CC3SC(=O)NC3=O)cc2)nc1 (centres unmarked) [STR001, pioglitazone HCl, reference compound] | superior to the positive control Aflibercept | 9.86 ± 17.7% | 9.86±17.7% | 215.8 ± 2.9 μm | significantly decreased | – | – | –
Cn1c(=O)c(Oc2ccc(F)cc2F)cc2cnc(NC(CCO)CCO)nc21 [STR002, 6-(2,4-Difluorophenoxy)-2-[3-hydroxy-1-(2-hydroxyethyl)-propylamino]-8-methyl-8H-pyrido[2,3-d]pyrimidin-7-one] | superior to the positive control Aflibercept | – | – | 216.2 ± 6.0 μm | significantly decreased | 7.75 ± 22.4% | 7.75±22.4% | significantly different from the pioglitazone alone group
Aflibercept: Aflibercept (Eylea®, Bayer Pharma AG), ready-to-use solution for intravitreal injections; positive control | – | – | – | 215.7 ± 6.5 μm | significantly decreased | 16.1±26.7% | – | –
